Data taken from patent US10570176B2, “Anti-hepatitis B virus X protein polypeptide pharmaceutical” (priority 2015, dated 2020).
Non-standard residues stand in square brackets, D forms with d. No end group written: not given here.

Tests used:
[1] = tested on: liver cancer HepAD38 cells integrated with HVB DNA; test: HBeAg secretion ELISA in HepAD38 cells; format: cell-based; settings: for Inhibition of HBeAg secretion levels: 10 μM
Protocol: (§1) 3. Analysis of function of D-TTK001 on HBeAg secreation in liver cancer cells utilizing enzyme-linked immunosorbent assay (ELISA)
(§2) (i) Biosafety cabinet was ultraviolet sterilized for 30 min and purged for 30 min; DMEM/F12 (1:1) culture medium containing 15% fetal bovine serum, HepAD38 cells (or HepG2.2.15 cells) were taken out, sterilized with 75% alcohol, and placed in the biosafety cabinet.
(§3) (ii) Under aseptic conditions, discard old culture medium, add 3 mL 1×PBS each time, wash twice, add 1 mL 0.25% trypsin, the cells were digested until cell rounding as observed in microscope. Add 5 mL culture medium, dispense cells, count with hemocytometer, and dilute with culture medium to a cell number of 1˜2×10^4 cells/mL.
(§4) (iii) Plating 96-well plate. Under aseptic conditions, discard old culture medium, add 3 mL 1×PBS each time, wash twice, add 1 mL 0.05% trypsin, the cells were digested until cell rounding as observed in microscope. Add 10 mL culture medium, dispense cells, count with hemocytometer, and dilute with DMEM/F12(1:1) culture medium, add 100 μL cell suspension into each well to a cell number of 1˜2×10^3 cells/mL. The outer-most wells are not added with cells. Culturing until cell attachment (usually 12 hrs.) and extension. Subsequent tests can be conducted when cells are in good condition.
(2) Applying D-TTK001 (or L-TTK001, i.e., anti-HBxP1#) to liver cancer HepAD38 cells (or HepG2.2.15 cells)
10 mM D-TTK001 (or L-TTK001) mother solution was serially diluted from high concentration to low concentration, added into liver cancer HepAD38 cells (or HepG2.2.15 cells) culture solution to obtain final concentrations of D-TTK001 (or L-TTK001) of 0.1 μM, 1 μM, 10 and 100 μM in respective groups. […]
(3) Applying ELISA to measure HBeAg content in HepAD38 cell (or HepG2.2.15 cell) culture medium
(i) Balancing: place HBeAg assay kit in room temperature for 30 min.
(ii) Preparing solution: dilute concentrated wash liquid for 25 times with purified water.
(iii) Taking out the plate: take out the reaction plate according to experimental requirements (3 wells for negative control, 1 well for positive control, and 1 well for blank control).
(iv) Adding sample: add 75 μL of test samples or negative/positive control into respective wells, gently shake and mix.
(v) Incubating: after sealed with microplate sealer, incubate at 37° C. for 60 min.
(vi) Adding enzyme: add 50 μL of enzyme conjugates into each well except for blank wells, gently shake and mix.
(vii) Incubating: after sealed with microplate sealer, incubate at 37° C. for 30 min.
(viii) Washing plate: remove microplate sealer carefully, manually wash plate for 5 times, pat dry.
(ix) Developing color: add 50 μL each of color-developing agent A and B liquid, gently shake and mix, develop color in dark placed at 37° C. for 30 min.
(§5) (x) Stopping: add 50 μL of stop solution into each well, gently shake and mix, measure the result in ten minutes. Set wavelength of microplate reader to 450 nm, measure OD value for each well after zero setting with blank wells.
The invention also investigates the role of the functional variants of the polypeptide and functional fragments thereof. The sequences as shown in the following table are artificially synthesized D-amino acid substituted sequences on the basis of L-TTK001 (i.e., anti-HBxP1#). The polypeptide fragments were artificially synthesized according to the sequences (method as above), and then, above-mentioned ELISA method was adopted to observe the change in the functions of the polypeptides.

[2] = tested on: HepG2.2.15 cells; test: HBeAg secretion ELISA in HepG2.2.15 cells; format: cell-based; settings: 0.1, 1, 10, 100 μM
Protocol: as §1, §2, §3
as §4, with “The outer-most wells are not added with cells. Culturing until cell attachment (usually 12 hrs.) and extension. Subsequent tests can be conducted when cells are in good condition.” left out
as §5

[3] = tested on: HepAD38 cells; test: MTT assay, proliferation of HepAD38 cells; format: cell-based; settings: 0.1, 1, 10, 100 μM, 48 hrs
Protocol: (1) Plating cells: suspend HepAD38 cells at exponential phase in RPMI1640 medium with 10% FBS, and plate 4000-5000 cells in a 96-well plate with 100 μL per well.
(2) Culturing cells: within 12 hrs. for adhesion of cultured cells, add different concentrations of synthesized D-TTK001 (or L-TTK001) polypeptides from Example 1 (0.1 μM, 1 μM, 10 μM and 100 μM) into 8 wells for each concentration, and incubate for 48 hrs. in common condition.
(3) Coloration: add 20 μL of MTT solution (5 mg/mL MTT in PBS buffer (pH7.4)) for each well.
(4) Incubate for 4 hrs., and carefully aspirate off the supernatant from the wells. Add 150 μL of DMSO into each well, shake for 10 min until the crystals were dissolved.
(5) Comparison: Read in an ELISA reader at 490 nm to measure the absorbance for each well. Results were calculated using Student's t-test.

[4] = biological target: T1, HBx protein (Hepatitis B virus genotype D subtype ayw, UniProt P03165); test: In vitro binding to recombinantly expressed HBx protein, Biacore 3000; settings: in vitro binding to HBx, in vitro binding analysis results
T1 construct: made in house
Protocol: The recombinant plasmid (pET-30a-HBx) expressing HBx gene was self-constructed and preserved (Zhang H, et al. J Biomed Biotechnol, doi:10.1155/2009/289068), and then expression and purification of HBx were conducted according to above reference for the measurement of in vitro binding ability. Biacore 3000 biomolecular interaction analyzing unit (manufactured by GE Healthcare) was utilized to measure in vitro binding ability of polypeptide D-TTK001 to recombinantly expressed HBx protein. Polypeptide at different concentrations were injected for 180 seconds at a rate of 30 μL/min. In dissociation stage, HBS-EP buffer was injected for 900 seconds at a rate of 30 μL/min, then at a rate of 30 μL/min, 2 shots of 1 mM NaOH were injected for 20 seconds to regenerate the chip. All signals were calibrated using channel 1 as the reference channel. Binding measurement was conducted twice, respectively, wherein in the first measurement, HBX was injected into the channel of the coupled polypeptide and the blank channel at concentrations of 0 nM, 10 nM, 50 nM, 100 nM, 500 nM and 600 nM, respectively. Binding time was 180 seconds and dissociation time was 400 seconds. On chip surface, 1 mM NaOH was injected for 20 seconds at a rate of 30 μL/min for regeneration. In the second measurement, HBX was injected into the channel of coupled polypeptide and the blank channel at concentrations of 0 nM, 10 nM, 50 nM, 588 nM, 1 μM, and 2 μM, respectively. Binding time was 180 seconds and dissociation time was 400 seconds. On chip surface, 1 mM NaOH was injected for 20 seconds at a rate of 30 μL/min for regeneration. Results were kinetically analyzed by BIA Evaluation Software.

T1 sequence (P03165 whole entry): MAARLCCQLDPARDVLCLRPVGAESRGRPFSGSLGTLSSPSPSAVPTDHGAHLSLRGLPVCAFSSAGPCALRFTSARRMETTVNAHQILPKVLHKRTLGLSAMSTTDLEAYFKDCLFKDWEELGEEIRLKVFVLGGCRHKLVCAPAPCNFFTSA

| Substance | Inhibition of HBeAg secretion levels [1] | other results |
| --- | --- | --- |
| G-S-A-V-M-F-S-S-K-E-D/R-G (GSAVMFSSKE[dR]G) [D-TTK001-10] | inhibits HBeAg secretion levels of HepAD38 cells to various extents | – |
| G-D/S-A-V-M-F-S-S-K-E-R-G (G[dS]AVMFSSKERG) [D-TTK001-1] | inhibits HBeAg secretion levels of HepAD38 cells to various extents | – |
| G-S-A-V-M-F-S-S-K-D/E-R-G (GSAVMFSSK[dE]RG) [D-TTK001-9] | inhibits HBeAg secretion levels of HepAD38 cells to various extents | – |
| G-S-A-V-D/M-F-S-S-K-E-R-G (GSAV[dM]FSSKERG) [D-TTK001-4] | inhibits HBeAg secretion levels of HepAD38 cells to various extents | – |
| G-S-A-V-M-F-S-D/S-K-E-R-G (GSAVMFS[dS]KERG) [D-TTK001-7] | inhibits HBeAg secretion levels of HepAD38 cells to various extents | – |
| G-S-D/A-V-M-F-S-S-K-E-R-G (GS[dA]VMFSSKERG) [D-TTK001-2] | inhibits HBeAg secretion levels of HepAD38 cells to various extents | – |
| GSAVMFSSKERG [L-TTK001, Gly-Ser-Ala-Val-Met-Phe-Ser-Ser-Lys-Glu-Arg-Gly, reference compound] | – | Minimum effective dose on HBeAg secretion levels ([1]; 0.1, 1, 10, 100 μM): 10 µM; Minimum effective dose on HBeAg secretion levels [2]: 10 µM; Minimum effective dose on growth and proliferation (MTT) [3]: 10 µM; Kd [4]: 8 nM |
| G-S-A-V-M-F-S-S-D/K-E-R-G (GSAVMFSS[dK]ERG) [D-TTK001-8] | inhibits HBeAg secretion levels of HepAD38 cells to various extents | – |
| G-S-A-V-M-D/F-S-S-K-E-R-G (GSAVM[dF]SSKERG) [D-TTK001-5] | inhibits HBeAg secretion levels of HepAD38 cells to various extents | – |
| G-S-A-D/V-M-F-S-S-K-E-R-G (GSA[dV]MFSSKERG) [D-TTK001-3] | inhibits HBeAg secretion levels of HepAD38 cells to various extents | – |
| G-S-A-V-M-F-D/S-S-K-E-R-G (GSAVMF[dS]SKERG) [D-TTK001-6] | inhibits HBeAg secretion levels of HepAD38 cells to various extents | – |
